Structures can show the parent of a compound that is named as a salt.
What was measured:
Phenylquinone Writhing = test: Phenylquinone-induced writhing in mice; format: in vivo, mouse (male Swiss albino); conditions: Mus musculus, po; for ED50: ED50, mice (second results table)
Procedure: A further test used to determine the utility of the compounds of the present invention is designated: DRUG EFFECTS ON PHENYLQUINONE-INDUCED WRITHING IN MICE […]
The objective of this test is to determine the ability of test drugs to inhibit the nociceptive (pain) response of mice injected with a chemical irritant. This test is a primary screen for both peripheral and centrally acting analgesic drugs.
Male Swiss albino mice (15-25 g). The animals are fasted for 18 hours prior to use but have free access to water.
(§1) Drug Preparation and Administration:
Drugs are dissolved or suspended according to their solubility in 0.5% methyl cellulose or 0.5% Tween 80. They are administered by gastric lavage in a volume of 5 ml/kg. For primary screening all drugs are administered at the arbitrary dosage of 200 mg/kg, p.o. to a group of 10 mice.
A modification of the method of Siegmund at el., Proc. Soc. Exp. Biol. Med., 95, 729-731 (1957) is used. Groups of 5 mice are dosed with the test compound or vehicle control. Sixty minutes later the animals are injected i.p. with 0.3 ml/20 g body weight of a 0.02% solution of phenylquinone (PBQ; 2-phenyl-1,4-benzoquinone) and placed in individual observation boxes. The numer of writhing or abdominal squirming movements made by each mouse during the following 15 min. period is counted. The experiment is repeated with another group of 5 mice and the mean number of writhes per mouse for a group of 10 mice is calculated.
Drug treated and vehicle-treated control groups are compared and the percentage protection conferred by the drug is calculated:
Percentage protection=(c-t)100/c […]
where c=mean number of writhes in the control group where t=mean number of writhes in the test drug group

Adjuvant Edema = test: Preventative Adjuvant Edema (Freund's complete adjuvant, hind paw volume); format: in vivo, rat (male Sprague Dawley); conditions: po; for ED50: ED50, rat (second results table)
Procedure: This test is a primary screen for anti-inflammatory drugs.
Male Sprague Dawley rats (180-200 g) are used. The animals have free access water but food is withdrawn 18 hours before testing.
Drug Preparations and Administration:
Freund's complete adjuvant is prepared by suspending 5 mg killed and dried Mycobacterium butyricum (Difco) in 1 ml liquid paraffin. The test compounds are dissolved in distilled water or suspended in distilled water with a few drops of Tween 80 according to their solubility. For primary screening all drugs are administrated by gastric lavage at the arbitrary dosage of 100 mg/kg, p.o. in a volume of 0.5 ml/100 g body weight to groups of 10 animals.
The method is essentially that described by Wax et al., J. Pharmacol. Exp. Ther., 192, 166-171 (1975). Groups of rats are injected intradermally in the left hind paw with 0.1 ml of Freund's complete adjuvant. The test compound or vehicle is administrated before the adjuvant, 24 hours and 48 hours after the adjuvant (day 0, 1 and 2). The injected hind paw volume is measured before the injection of adjuvant and 24 hrs. after the last drug administration (day 3) by means of a plethysmometer (Buxco Electronics Inc.). The difference between then hind paw volume on day 0 and day 3 represents the edema volume. Phenylbutazone (50 mg/kg, p.o.) is included as a positive control.
The mean edema volume (expressed as ml±SEM) is calculated for each group and the percentage protection conferred by the drug is calculated:
where c is the mean edema volume for the untreated controls and t is the mean edema volume for the drug treated group.

inflamed paw = test: Paw Pressure Test in the Rat (Freund's adjuvant inflamed paw, pain threshold); format: in vivo, rat (male Sprague Dawley); conditions: po; ED50, rat (second results table)
Description: A still further test used to determine the utility of the compounds of the present invention is designated: PAW PRESSURE TEST IN THE RAT
The objective of this test is to assess the potency of peripheral and central acting drugs in inhibiting the reaction of rats to painful stimulation applied to an inflamed paw.
Male Sprague Dawley rats (180-200 g) are used. The animals are fasted overnight prior to drug administration.
as §1
Freund's Complete Adjuvant (FCA) is prepared by suspending 5 mg killed and dried mycobacterium butyricum (Difco) in 1 ml liquid paraffin. The test compounds are dissolved, or suspended with a few drops of Tween 80, in distilled water according to their solubility. They are administered by gastric gavage in a volume of 0.5 ml/100 g body weight to groups of 10 animals.
Ten rats are used per group. The method is essentially that described by Randall, et al., Arch. Int. Pharmacodyn. 111, 409 (1957) and the apparatus which is used to apply pressure to the paw (Analgesy-meter for the rat paw, Ugo Basile from Coulbourn Instruments) is a modification of that described by Gilfoil et al., J. Pharmacol, 142, 1 (1963). The instrument is basically a device which exerts a force that increases at a constant rate. The force is continuously monitored by a pointer moving along a linear scale and is measured in grams. The inflammatory reaction is induced in the left hind paw of rats by injecting 0.1 ml of Freund's adjuvant intradermally. The test compound or vehicle is administered 24 hours after the adjuvant. Prior to drug administration the rats are selected for their paw sensitivity. Rats responding to a pain threshold greater than 10 g applied to the inflamed paw are rejected. The pain threshold (vocalization) is determined 1 and 3 hours later in the inflamed paw and the normal paw of the treated and control groups. The higher of the 2 readings will be considered as representative of the drug effect on the pain threshold.
Presentation of results and Criteria for Activity:
Each animal which has a reading 1.5 times greater than the mean reading of the control-group will be considered as responsive to treatment. The number of animals showing an analgesic effect is then determined in each group.
The ED50 (dose which causes analgesia in 50% of the animals) using at least 3 doses is then determined, by the method described in Litchfield et al., J. Pharmacol. Exp. Ther., 96, 99 (1949).

[1] = 72 h, rat (second results table), read-out: Preventative Adjuvant Edema percent inhibition

## C=CC[C@@H]1CC[C@](CC)(CC(=O)O)c2[nH]c3c(Cl)c(Cl)ccc3c21 (relative stereo) [Example 32, cis-7,8-dichloro-1-ethyl-2,3,4,9-tetrahydro-4-(2-propenyl)-1H-carbazole-1-acetic acid]
Phenylquinone Writhing
  ED50: 2 mg/kg
Adjuvant Edema; [1]
  inhibition in vivo at 25 mg/kg: 22%
Inflamed paw
  ED50: 0.08 mg/kg

## C=CC[C@@H]1CC[C@](CC)(CC(=O)O)c2[nH]c3cc(Cl)ccc3c21 (relative stereo) [Example 20]
Phenylquinone Writhing
  ED50: 5.1 mg/kg
Adjuvant Edema
  ED50: 5.4 mg/kg
Inflamed paw
  ED50: 0.38 mg/kg

## C=CC[C@H]1CC[C@@](CC)(CC(=O)O)c2[nH]c3c(CC)cccc3c21 [Example 45, (1S-cis)-1,8-Diethyl-2,3,4,9-tetrahydro-4-(2-propenyl)-1H-carbazole-1-acetic Acid Benzenemethanamine Salt (1:1)]
Phenylquinone Writhing; dose 25 mg/kg, mice (second results table), read-out: Phenylquinone Writhing in Mice percent inhibition
  inhibition in vivo at 25 mg/kg: 94%
Adjuvant Edema; [1]
  inhibition in vivo at 25 mg/kg: 54%
Inflamed paw
  ED50: 0.011 mg/kg

## C=CC[C@@H]1CC[C@](CC)(CC(=O)O)c2[nH]c3ccc(CCCC)cc3c21 (relative stereo) [Example 8]
Phenylquinone Writhing
  ED50: 10.6 mg/kg
Adjuvant Edema; 72 h, dose 5 mg/kg, rat (second results table), read-out: Preventative Adjuvant Edema percent inhibition
  inhibition in vivo at 5 mg/kg: 56%
Inflamed paw
  ED50: 0.2 mg/kg

## C=CC[C@@H]1CC[C@](CC)(CC(=O)O)c2[nH]c3c(C)cccc3c21 (relative stereo) [Example 11, cis-1-ethyl-2,3,4,9-tetrahydro-8-methyl-4-(2-propenyl)-1H-carbazole-1-acetic acid]
Phenylquinone Writhing
  ED50: 8.3 mg/kg
Adjuvant Edema
  ED50: 8.5 mg/kg
Inflamed paw
  ED50: 0.33 mg/kg

## C=CC[C@@H]1CC[C@](CC)(CC(=O)O)c2[nH]c3c(Cl)cccc3c21 (relative stereo) [Example 16]
Phenylquinone Writhing
  ED50: 11 mg/kg
Adjuvant Edema
  ED50: 13 mg/kg
Inflamed paw
  ED50: 0.89 mg/kg
